This is an account of results in patent publication US9657073B2, “Inhibitors of Bcl-2” (Case Western Reserve University, priority 2010, dated 2017).

One test relates to multiple myeloma cells. Put plainly: Killing of multiple myeloma cells. The conditions noted are these: FIG. 17. Type of test: cell-based.
Test [1] relates to primary CLL cells. Put plainly: Apoptosis and cell death assays (trypan blue, propidium iodide, Hoechst nuclear morphology, Annexin V). Type of test: cell-based, human. The conditions noted are these: 24 hr. The text has this: Lymphocytes were freshly separated from heparinized peripheral blood obtained from normal adult volunteers or adult patients with chronic lymphocytic leukemia (CLL) meeting standard diagnostic guidelines. […] We conformed to all guidelines and regulations in accordance with Internal Review Board protocols ICC2902/11-02-28 (Case Western Reserve University Cancer Center/University Hospitals of Cleveland Ireland Cancer Center). Cells were separated by centrifugation through Ficoll-Hypaque and suspended in RPMI medium supplemented with 10% fetal bovine serum, L-glutamine (2 mM), and nonessential amino acids (100 μM) at a density of 2 million cells/ml. Normal CD19+ B cells were pooled from healthy individuals between 26 and 32 years of age, in accordance with IRB-approval (as above). Mononuclear cells were separated by Ficoll-Hypaque centrifugation, and further isolation of B and T cells was achieved by magnetic separation using CD19 microbeads (Miltenyi Biotec, Bergisch Gladbach, Germany).
Apoptosis was quantified according to apoptotic nuclear morphology and by detection of phosphatidylserine exposure on the plasma membrane. […] Images were obtained using a chargecoupled device camera (Hamamatsu Photonics, Shizuoka, Japan) and digitally converted by Simple PCI software (Hamamatsu Photonics). Membrane translocation of phosphatidylserine was detected by Annexin V staining. Annexin V-positive cells were assessed by flow cytometry using an ARIA flow cytometer (Beckman Coulter, Pasadena, Calif., USA). All flow cytometry data were analyzed using FlowJo 8.8.4 for Macintosh (Treestar, Ashland, Oreg., USA). Dead cells were identified according to their inability to exclude trypan blue dye or propidium iodide. Trypan blue dye uptake into cells was detected by light microscopy using a 40× objective and quantified by counting up to 400 cells. Propidium iodide uptake was quantified by flow cytometry in association with the Annexin V measurement described above.

The test system of a further test is Jurkat cells. Put plainly: Single cell digital imaging of intracellular Ca2+ (Fura-2). Type of test: cell-based, human. The settings on record: 10 μM peptide, Jurkat, FIG. 5. The method, then:
(§1) WEHI7.2 cells were cultured in DMEM supplemented with 10% fetal calf serum, L-glutamine (2 mM), and nonessential amino acids (100 μM). Transfections of WEHI7.2 cells with expression vectors encoding wild type Bcl-2 and Bcl-2RS/GG were described previously. Jurkat cells and RS11846 cells were cultured in RPMI medium supplemented with 10% fetal bovine serum, L-glutamine (2 mM), and nonessential amino acids (100 μM). Cells were maintained in 5% carbon dioxide at high humidity.
(§2) Methods of Ca^2+ imaging, described in detail previously, were employed here with only minor modification. Briefly, cells adhered to poly-L-lysine-coated coverslips (35-mm coverslip dishes, MatTek Corp., Ashland, Mass.) were loaded with 1 μM Fura-2 AM for 45 min at 25° C. in extracellular buffer (ECB) (130 mM NaCl, 5 mM KCl, 1.5 mM CaCl2, 1 mM MgCl2, 25 mM Hepes, pH 7.5, 1 mg/ml BSA, and 5 mM glucose). The buffer was replaced with fresh ECB and the incubation continued for […] at 25° C. to permit de-esterification. Culture dishes were mounted on the non-heated stage of an inverted microscope (Olympus CKX41) equipped with a 20× Fluor objective. Excitation light was alternated between 340 and 380 nm by a filter wheel (Sutter Instrument Co.), with 0.8 sec and 0.2 sec exposure times respectively, and emitted light was filtered at >510 nm and collected with an intensified charge-coupled device camera (Cooke 12 bit VGA). The video signal was digitized using InCyt Im2 software (Intracellular Imaging) and subsequently processed using Microsoft Excel. To determine Rmin cells were perfused with ECB deficient in Ca^2+ and supplemented with 4 mM EGTA and 10 μM ionomycin. Rmax was obtained by perfusing cells with ECB supplemented with 4 mM CaCl2 and 10 μM ionomycin. […] In most experiments peptides were fused with the cell penetrating peptide of HIV TAT to facilitate uptake by cells. In some experiments peptides, without linkage to TAT, were delivered into cells using Chariot reagent (Active Motif) as previously described. Xestospongin C (Enzo Life Sciences International) and U73122 (Sigma), both dissolved in DMSO, were added to cells 30 mM prior to Ca^2+ measurements.

A further test concerns RS11846 cells. Described as above. The format is cell-based, human. The conditions noted are these: RS11846, FIG. 6. As for the experimental part: as §1, §2
A further test has as its system wild type DT40 cells. The test is described as above. Type of test: cell-based. The conditions noted are these: 5 μM peptide, DT40 expressing all three IP3R isoforms, FIG. 8B. The method, then:
as §2, with “In some experiments peptides, without linkage to TAT, were delivered into cells using Chariot reagent (Active Motif) as previously described. Xestospongin C (Enzo Life Sciences International) and U73122 (Sigma), both dissolved in DMSO, were added to cells 30 mM prior to Ca^2+ measurements.” left out

The test system of test [2] is triple IP3R knockout DT40 cells. The test is described as above. The format is cell-based. The conditions noted are these: 5 μM peptide, TKO DT40, FIG. 8C. As for the experimental part:
as §2, with “In some experiments peptides, without linkage to TAT, were delivered into cells using Chariot reagent (Active Motif) as previously described. Xestospongin C (Enzo Life Sciences International) and U73122 (Sigma), both dissolved in DMSO, were added to cells 30 mM prior to Ca^2+ measurements.” left out

Test [3] has as its system primary CLL cells. The description is as above. Type of test: cell-based, human. The settings on record: 10 μM peptide.
Text: Lymphocytes were freshly separated from heparinized peripheral blood obtained from normal adult volunteers or adult patients with chronic lymphocytic leukemia (CLL) meeting standard diagnostic guidelines. Patients had either never received treatment or had received treatment over two years prior to obtaining samples. We conformed to all guidelines and regulations in accordance with Internal Review Board protocols ICC2902/11-02-28 (Case Western Reserve University Cancer Center/University Hospitals of Cleveland Ireland Cancer Center). Cells were separated by centrifugation through Ficoll-Hypaque and suspended in RPMI medium supplemented with 10% fetal bovine serum, L-glutamine (2 mM), and nonessential amino acids (100 μM) at a density of 2 million cells/ml. Normal CD19+ B cells were pooled from healthy individuals between 26 and 32 years of age, in accordance with IRB-approval (as above). Mononuclear cells were separated by Ficoll-Hypaque centrifugation, and further isolation of B and T cells was achieved by magnetic separation using CD19 microbeads (Miltenyi Biotec, Bergisch Gladbach, Germany).
as §2

As to “TAT-IDPDD/AA: TAT-IDP analogue; DD/AA substitution eliminates the predicted aspartyl protease cleavage site (RKKRRQRRRGGNVYTEIKCNSLLPLAAIVRV)”, in the test on multiple myeloma cells, the “killing of multiple myeloma cells” value is “kills multiple myeloma cells”. In addition, the “apoptosis induction in CLL cells” value with primary CLL cells [1] (10 μM peptide, Figs. 12-15) is “substantial apoptosis”. Also, the “sensitivity of CLL cells to apoptosis induction relative to normal peripheral blood lymphocytes” value in the test on primary CLL cells [1] (propidium iodide exclusion by flow cytometry, FIG. 16) was “over 6 fold”. Also, the “amplitude and frequency of Ca2+ oscillations compared with TAT-IDP” value in the test on Jurkat cells is on record as “much higher”. Also, the “activity (Ca2+ oscillations) compared to TAT-IDP” value with RS11846 cells is listed as “increased activity”. Moreover, the “induction of Ca2+ oscillations” value in the test on wild type DT40 cells was “induced Ca^2+ oscillations”. Moreover, the “induction of Ca2+ oscillations compared with wild type DT40” value in test [2] is “significantly less”. Besides, in the test on primary CLL cells [3] (90 min), the “CLL cells with one or two high amplitude spikes associated with prolonged basal Ca2+ elevation” value was determined as 28±5%, the “CLL cells with prolonged Ca2+ oscillations without baseline Ca2+ elevation” value stood at 6±2% and the “CLL cells with relatively brief burst of Ca2+ oscillations associated with prolonged basal Ca2+ elevation” value came out at 17±4%. Moreover, the “amplitude of Ca2+ peaks compared to TAT-IDP” value in the test with primary CLL cells [3] (FIG. 10) was “significantly higher”. The “CLL cells with Ca2+ elevation” value in the test on primary CLL cells [3] (recordings typically 90 min, FIG. 9) is recorded as 51 ±5%.
